# Laboratory results as given in patent publication US20190015484A1, “NICOTINE-DEGRADING ENZYMES FOR TREATING NICOTINE ADDICTION AND NICOTINE POISONING” (priority 2015, published 2019).
# pEC50, pKi: −log10 of the molar value. Where two headings read alike, the source gives them in different places.
# Experiments:
# [1] = test system: Swiss Webster mice; test: Toxicity of reaction product to mice; format: in vivo, mouse
# Description: Short-term experiments were performed by administrating 35, 70 140 ng of […] to male Swiss Webster mice (about 20 g, n=4 for each group) daily. Their viability and behavior was recorded.
# Long-term experiments were performed by administrating 200 ng to the same species of mice (n=7) every other day for 5 weeks. At the end of the 5th week, the mice were euthanized and autopsied.
# The clinical utility of an enzyme also relates to the toxicity and addictive properties of the reaction products. […] However, it has been reported as a likely precursor to 4-(methylnitrosamino)-1-(3-pyridyl)-1-butanone (NNK), a potential carcinogen.^20 To investigate any harmful effects of 4, toxicology studies were performed in which mice were administered pseudooxynicotine (4).
# Mice received 35, 70 or 140 ng of compound 4 daily, which is representative of the typical range of nicotine amounts (4-72 ng/mL) found in smokers,^19 if fully converted to compound 4. […] In addition, the long-term exposure (5-weeks) of 4 was evaluated where the mice were dosing every other day with 200 ng compound 4 per dose.
# [2] = target: neuronal nicotinic acetylcholine receptors (nAChR); conditions: read-out: Ki for nAChr; cited from earlier work
# [3] = target: neuronal nicotinic acetylcholine receptors (nAChR); conditions: cited from earlier work
# [4] = humans, cited from earlier work
smiles,measurement,setting,value
"CNCCCC(=O)c1cccnc1 [compound 4, 4-(methylamino)-1-(pyridine-3-yl)butan-1-one]","health and autopsy, long-term exposure","[1]; mice, 200 ng every other day, 5 weeks",remained healthy and autopsies did not reveal any sign of neoplasia or organ damage
same,"health and behavior, short-term","[1]; mice, 35, 70 or 140 ng daily, five days",none of the mice exhibited any evidence of health or behavioral problems
"CN1CCC[C@H]1c1cccnc1 [nicotine, (S)-(−)-nicotine]",pKi,[2],7.92 to 9.00
same,pEC50,"[3]; read-out: EC50 for activation of nAChr, activation",7.22
same,pEC50,"[3]; read-out: EC50 for desensitization of nAChr, desensitization",8.55
same,terminal half-life,[4]; regular smoking,≥ 20 h
same,elimination half-life,[4]; tobacco use,2 to 3 h
